Source: article PMC8869358, “High-Throughput Chemical Screening and Structure-Based Models to Predict hERG Inhibition” (Biology, 2022)
Structures can show the parent of a compound that is named as a salt.

Target: hERG (Homo sapiens, UniProt Q12809)
Test: cell-based
Details: (-LOG10(IC50), µM)

Chain of hERG (Q12809 whole entry): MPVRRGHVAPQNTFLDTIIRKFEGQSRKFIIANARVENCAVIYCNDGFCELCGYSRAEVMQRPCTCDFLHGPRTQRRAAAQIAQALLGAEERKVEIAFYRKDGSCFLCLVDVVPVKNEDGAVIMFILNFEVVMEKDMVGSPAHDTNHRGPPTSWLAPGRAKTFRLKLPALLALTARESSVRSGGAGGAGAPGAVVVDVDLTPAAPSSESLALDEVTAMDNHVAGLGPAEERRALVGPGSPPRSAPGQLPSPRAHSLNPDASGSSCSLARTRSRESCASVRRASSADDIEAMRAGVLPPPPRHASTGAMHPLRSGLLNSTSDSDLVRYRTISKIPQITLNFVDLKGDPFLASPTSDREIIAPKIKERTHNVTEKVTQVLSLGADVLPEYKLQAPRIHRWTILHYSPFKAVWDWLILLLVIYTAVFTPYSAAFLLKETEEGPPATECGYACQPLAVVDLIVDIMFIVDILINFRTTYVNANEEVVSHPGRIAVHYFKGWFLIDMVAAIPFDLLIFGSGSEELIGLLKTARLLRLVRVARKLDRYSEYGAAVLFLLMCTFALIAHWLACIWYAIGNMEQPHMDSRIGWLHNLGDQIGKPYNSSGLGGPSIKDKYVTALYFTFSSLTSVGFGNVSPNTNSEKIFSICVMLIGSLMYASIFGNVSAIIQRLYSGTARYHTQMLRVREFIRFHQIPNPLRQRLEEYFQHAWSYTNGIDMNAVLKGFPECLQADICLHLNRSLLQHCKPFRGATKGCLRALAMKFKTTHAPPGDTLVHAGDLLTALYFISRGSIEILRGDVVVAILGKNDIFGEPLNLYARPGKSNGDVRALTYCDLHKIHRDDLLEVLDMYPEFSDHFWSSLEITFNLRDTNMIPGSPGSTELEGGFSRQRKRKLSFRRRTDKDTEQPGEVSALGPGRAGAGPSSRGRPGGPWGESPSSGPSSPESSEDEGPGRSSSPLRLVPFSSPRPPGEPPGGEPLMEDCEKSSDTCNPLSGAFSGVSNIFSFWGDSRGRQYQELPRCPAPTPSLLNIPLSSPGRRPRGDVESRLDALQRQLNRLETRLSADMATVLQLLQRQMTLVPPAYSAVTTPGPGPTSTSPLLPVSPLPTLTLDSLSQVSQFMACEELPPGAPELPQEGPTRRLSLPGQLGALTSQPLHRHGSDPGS

Row | SMILES | IC50
1 | Oc1cc(Cl)ccc1Oc1ccc(Cl)cc1Cl [Triclosan] | 45.2 µM
2 | CCCCCCCCCCCCCC[P+](CCCCCC)(CCCCCC)CCCCCC [Trihexyltetradecylphosphonium chloride] | 0.875 µM
3 | CCCCCCCCCCCCCCCC[N+](C)(C)CCN(Cc1ccc(OC)cc1)c1ncccn1 [Thonzonium bromide] | 0.409 µM
4 | CCCC[P+](C)(CCCC)CCCC [Tributylmethylphosphonium methyl sulfate] | 35.1 µM
5 | CCCOc1sc(C(=O)N2CCC(c3cc(CN)ccc3F)CC2)c(C)c1Br [AVE8923] | 4.49 µM
6 | Clc1ccc(C(c2ccccc2Cl)C(Cl)Cl)cc1 (stereo not drawn) [1-(2-Chlorophenyl)-1-(4-chlorophenyl)-2,2-dichloroethane] | 21.9 µM
7 | Brc1ccccc1-c1ccccc1 [2-Bromobiphenyl] | 35.5 µM
8 | Cn1cc(C(=O)[C@@H]2CCc3nc[nH]c3C2)c2ccccc21 [Ramosetron hydrochloride] | 20.5 µM
9 | c1ccc(C(O[C@H]2CCCN(CCc3ccc4c(c3)OCO4)C2)c2ccccc2)cc1 [Zamifenacin fumarate] | 0.535 µM
10 | OC(c1ccc(Cl)cc1)(c1ccc(Cl)cc1)c1cccnc1 [Parinol] | 20.3 µM
11 | OC(c1ccc(Cl)cc1)(c1cncnc1)c1ccccc1Cl (stereo not drawn) [Fenarimol] | 47.9 µM
12 | CCCCCCCCCCCCCCCCn1cc[n+](C)c1 [1-Hexadecyl-3-methylimidazolium tetrafluoroborate] | 9.86 µM
13 | CN(C)CCN(Cc1ccc(Cl)cc1)c1ccccn1 [Chloropyramine hydrochloride] | 2.39 µM
14 | COc1cc(C(C)(C)C)c(O)c(C(C)(C)C)c1 [2,6-Di-tert-butyl-4-methoxyphenol] | 38.9 µM
15 | O=C1NC2CCCCN2C12CCN(CCCN1c3ccccc3CCc3ccc(Cl)cc31)CC2 (stereo not drawn) [Mosapramine] | 0.882 µM
16 | c1ccc(OCc2ccc(CCCN3CCOCC3)cc2)cc1 [Fomocaine] | 10.7 µM
17 | CC(C)=CCN1CC[C@@]2(C)c3cc(O)ccc3C[C@@H]1[C@@H]2C [(-)-Pentazocine succinate] | 22.8 µM
18 | ClC1=C(Cl)[C@]2(Cl)[C@@H]3[C@@H](Cl)[C@H]4O[C@H]4[C@@H]3C1(Cl)C2(Cl)Cl [Heptachlor epoxide B] | 38.9 µM
19 | CCN(CC)CC1CCCCN1CC(=O)N1c2ccccc2C(=O)Nc2cccnc21 (stereo not drawn) [AF-DX 116] | 20.5 µM
20 | CC(C)c1ccc2c(c1)CC[C@H]1[C@](C)(CN)CCC[C@]21C [Dehydroabietylamine acetate] | 13.3 µM

Row | SMILES | IC50
21 | CCCCCCCCCCn1cc[n+](C)c1 [1-Decyl-3-methylimidazolium chloride] | 16.7 µM
22 | CCOC(=O)C1(c2ccccc2)CCN(CCC(C#N)(c2ccccc2)c2ccccc2)CC1 [Diphenoxylate hydrochloride] | 0.624 µM
23 | CCCCOC(=O)COC(=O)c1ccccc1C(=O)OCCCC [Butylphthalyl butylglycolate] | 20.9 µM
24 | CC(C)(c1ccccc1)c1ccc(O)c(C(C)(C)c2ccccc2)c1 [2,4-Bis(1-methyl-1-phenylethyl)phenol] | 21.7 µM
25 | OCC(c1ccc(Cl)cc1)c1ccc(Cl)cc1 [2,2-Bis(4-chlorophenyl)ethanol] | 49 µM
26 | CCOC(CN1CCN(CC(C)C(=O)c2ccccc2)CC1)c1ccccc1 (stereo not drawn) [Eprazinone dihydrochloride] | 9.28 µM
27 | CCCCN1C(=O)[C@@H]([C@H](O)C2CCCCC2)NC(=O)C12CCN(Cc1ccc(Oc3ccc(C(=O)O)cc3)cc1)CC2 [Aplaviroc hydrochloride] | 17.4 µM
28 | CCc1c(C(=O)NN2CCCCC2)nn(-c2ccc(Cl)cc2Cl)c1-c1ccc(Br)cc1 [Surinabant] | 6.92 µM
29 | COP(=S)(OC)Oc1cc(Cl)c(I)cc1Cl [Iodenphos] | 45.3 µM
30 | COc1ccc(C(=O)CC(=O)c2ccc(C(C)(C)C)cc2)cc1 [1-(4-tert-Butylphenyl)-3-(4-methoxyphenyl)propane-1,3-dione] | 21.3 µM
31 | CCC(=O)O[C@H]1CC[C@H]2[C@@H]3CCC4=CC(=O)CC[C@]4(C)[C@H]3CC[C@]12C [Testosterone propionate] | 25.8 µM
32 | CC1C2CC(CC2C2CCCC(O)C2)C1(C)C (stereo not drawn) [3-(5,5,6-Trimethylbicyclo[2.2.1]hept-2-yl)cyclohexanol] | 22.7 µM
33 | CCOC(=O)c1ccc([C@H]2CC[C@H](NC[C@H](O)COc3ccc(O)c(NS(C)(=O)=O)c3)CC2)cc1 [SAR 150640] | 28.5 µM
34 | C=CCCC(=O)/C=C/C1C(C)=CCCC1(C)C (stereo not drawn) [Allyl Ionone] | 30.9 µM
35 | Cc1ccc(-c2ccccc2)cc1 [4-Phenyltoluene] | 49 µM
36 | O=C1OC2(c3ccc(O)cc3Oc3cc(O)ccc32)c2ccccc21 [Fluorescein] | 21.9 µM
37 | CCOC(=O)COc1ccc2c(c1)CC(NCC(O)c1cccc(Cl)c1)CC2 (stereo not drawn) [SR58611] | 1.45 µM
38 | C=C(C)C(=O)OCC(CC)(COC(=O)C(=C)C)COC(=O)C(=C)C [1,1,1-Trimethylolpropane trimethacrylate] | 30.2 µM
39 | CC(C)=CCCC(C)=CCCC(C)=CCO [Farnesol] | 47.1 µM
40 | CCC(=O)C(CCN(C)C)(c1ccccc1)c1ccccc1 [Normethadone] | 15.1 µM

Row | SMILES | IC50
41 | O=[N+]([O-])c1ccc(Nc2ccccc2)cc1 [4-Nitro-N-phenylaniline] | 51.3 µM
42 | CC(=O)c1cc2c(cc1C)C(C)(C)C(C)CC2(C)C (stereo not drawn) [Tonalide] | 20.3 µM
43 | O=C(N[C@H](c1ccccc1)[C@@H]1CN2CCC1CC2)c1c(Cl)ccc(C(F)(F)F)c1Cl [SSR 103800] | 30.2 µM
44 | CCN(CCC#N)c1ccc(N=Nc2c(Cl)cc([N+](=O)[O-])cc2Cl)cc1 [C.I. Disperse Orange 37] | 40.4 µM
45 | CCCCOC(=O)[C@@H](C)Oc1ccc(Oc2ccc(C(F)(F)F)cn2)cc1 [Fluazifop-P-butyl] | 22 µM
46 | COc1ccc(CN(CCN(C)C)c2ccccn2)cc1 [Pyrilamine maleate] | 20.9 µM
47 | CCCCCCCCCCCCCC[P+](CCCCCC)(CCCCCC)CCCCCC [Trihexyltetradecylphosphonium bromide] | 0.44 µM
48 | C/C(=C(/OCCOc1ccc(Cl)cc1)c1ccc(Cl)cc1Cl)n1ccnc1 [Omoconazole] | 8.17 µM
49 | CC[N+]1(C)CCCC1 [1-Ethyl-1-methylpyrrolidinium iodide] | 19.5 µM
50 | CN(C)C(=S)SSC(=S)N(C)C [Bis(dimethylaminothiocarbonyl) disulfide] | 22.1 µM
51 | CCn1c2ccccc2c2cc([N+](=O)[O-])ccc21 [9-Ethyl-3-nitro-9H-carbazole] | 28.6 µM
52 | OCCN1CCN(CCCN2c3ccccc3Sc3ccc(C(F)(F)F)cc32)CC1 [Fluphenazine] | 2.79 µM
53 | CC1CCCCN1CCCOC(=O)c1ccc(OC2CCCCC2)cc1 (stereo not drawn) [Cyclomethycaine] | 2.68 µM
54 | CCCCCCCCCCCCCCCC[N+](C)(C)C [Hexadecyl trimethyl ammonium chloride] | 18.1 µM
55 | C=CCNc1nc(NCC=C)nc(N2CCN(C(c3ccc(F)cc3)c3ccc(F)cc3)CC2)n1 [Almitrine dimethanesulfonate] | 6.01 µM
56 | Cc1cc(C(C)(C)c2ccc(O)c(C)c2)ccc1O [3,3'-Dimethylbisphenol A] | 41.6 µM
57 | CC(C)=CCC[C@](C)(O)[C@@H]1CC=C(C)CC1 [Levomenol] | 38.9 µM
58 | CN1CCN(Cc2cc(-c3ccc4[nH]c(=O)oc4c3)co2)[C@@H](c2ccc(F)cc2)C1 [AVE8488] | 37.4 µM
59 | CCCSSC(CCO)=C(C)N(C=O)Cc1cnc(C)nc1N [Prosultiamine] | 10.7 µM
60 | CC[N+]1(CC)CCC(=C(c2ccccc2)c2ccccc2)C1C (stereo not drawn) [Prifinium bromide] | 20.5 µM
